Data: paper PMC9964544, “Evidence of Insulin-Sensitizing and Mimetic Activity of the Sesquiterpene Quinone Avarone, a Protein Tyrosine Phosphatase 1B and Aldose Reductase Dual Targeting Agent from the Marine Sponge Dysidea avara” (Pharmaceutics, 2023)
Entries after “also recorded” stand apart in the source; their conditions may differ.

Legend:
[1] = system: human microvascular endothelial cells (HMEC-1); design: method as in PMID 32075136; settings: ref [19]; read-out: IC50 cytotoxicity HMEC-1; cited from earlier work
[2] = system: C2C12 cells; assay: Akt phosphorylation in C2C12 cells by Western blot; format: cell-based; settings: 30 min, serum-starved C2C12
Method: To evaluate the impact of avarone (2) on the insulin signaling pathway, C2C12 cells were plated on P35 dishes and grown until 70% confluence. Then, cells were washed with phosphate-buffered saline (PBS) and incubated for 24 h in the presence of a starvation medium (DMEM high glucose containing 2 mM glutamine, 100 U/mL of penicillin, and 100 μg/mL of streptomycin). After this time, cells were stimulated for 30 min with 10 nM insulin (Humulin R, Ely Lilly, Italy) with avarone (2) or the insulin-avarone combination. […] Phosphorylation levels of the insulin receptor β chain and of the kinase Akt were evaluated using specific antibodies: IR β subunit, clone CT-3 (MABS65) was from Santa Cruz Biotechnology (Santa Cruz, CA, USA); pIR β subunit, Y1162/1163 (sc-25103-R) was from Merck-Millipore (Burlington, MA, USA). […] Quantitation of the images obtained was carried out using iBright Analysis Software (Thermo Fisher Scientific 168 Third Avenue Waltham, MA, USA, 02451). Glucose uptake was evaluated as previously described. […] Intrinsic and 2-NBDG-derived cell fluorescences were determined using a flow cytometer (FACSCanto II, BD Biosciences, San Jose, CA, USA). […] Quantitative analysis was carried out using FlowJo software (FlowJo^TM v10. BD FlowJo™ Software for Windows Version 10. Ashland, OR: Becton, Dickinson and Company; 2021). […]

[3] = target: T1, human recombinant AKR1B1 (Homo sapiens, UniProt P15121); assay: Kinetic characterization and reversibility of AKR1B1 inhibition (Morrison equation, tight binding); format: biochemical
T1 construct: made in house
Description: AKR1B1 activity measurements obtained at each substrate concentration were fitted by nonlinear regression analysis to the Morrison equation reported below (Equation (1)). (1) vi=1−([ET]+[I]+Kiapp)−([ET]+[I]+Kiapp)^2−4[ET][I]/2[ET]
This allowed the evaluation of Kiapp . In order to obtain the inhibition constants Ki (dissociation constant of the EI complex) and Ki′ , (dissociation constant of the EIS complex), the Kiapp values were plotted against substrate concentration and fitted by nonlinear regression analysis to the following equation:(2) Kiapp=([S]+ KM)/(KM/Ki+[S]/Ki′)
Panel A: the activity of the purified enzyme (10 mU) was measured at the indicated concentrations of avarone in the presence of the indicated L-idose concentrations. (B) Experimental data reported in (A) were fitted to the Morrison equation (see Materials and methods, Equation (1)).

[4] = target: T2, Human PTP1B (Homo sapiens, UniProt P18031); assay: Kinetic analysis of PTP1B inhibition (Lineweaver-Burk plot, KM,app fit, dilution assay); settings: for Ki: fit of KM,app against avarone concentration, Equation (3)
T2 sequence (P18031 1-302): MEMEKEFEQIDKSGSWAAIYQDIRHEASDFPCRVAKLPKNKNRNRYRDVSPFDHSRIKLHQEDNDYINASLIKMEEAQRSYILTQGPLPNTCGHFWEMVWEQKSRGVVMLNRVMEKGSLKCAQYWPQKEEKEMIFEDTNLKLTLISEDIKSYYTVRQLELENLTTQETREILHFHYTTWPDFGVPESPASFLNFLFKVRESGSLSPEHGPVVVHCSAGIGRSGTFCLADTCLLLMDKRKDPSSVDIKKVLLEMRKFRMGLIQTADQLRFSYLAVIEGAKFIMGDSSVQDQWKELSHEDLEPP
Method: Equation (2) refers to a general case of a tight binding non-competitive inhibition model. […] The mechanism of action of avarone was evaluated by analyzing the effect of increasing avarone concentrations on the main kinetic parameters (KM and Vmax) of PTP1B. Data obtained were analyzed using the Lineweaver–Burk plot. The value of Ki was determined using the appropriate equations.
The second inhibitor molecule (IB) can only bind to EIA, generating the ternary complex (EIAIB). Considering the prevailing rapid equilibrium conditions, it was possible to derive Equation (3), which describes the dependence of KM on the avarone concentration. […] (3) KM,app=KM×{1+[I]/KiA+[I]^2/KiA×KiB}
Figure 4 Impact of avarone on PTP1B-catalyzed hydrolysis of pNPP: the Lineweaver–Burk plot. Data reported in the figure were obtained by measuring the initial hydrolysis rate of pNPP at seven different concentrations, in the presence of increasing concentration of avarone. The concentrations of avarone used were: 0 µM, (●); 4 µM, (☐); 5.5 µM, (▲); 7 µM (▽). Each test was carried out in triplicate. Data reported in the figure represent the mean value ± SD.
Figure 5 Determination of KiA and KiB for avarone. Dependence of KM,app from the avarone concentration. Data obtained were fitted using Equation (3). Data fitting was obtained using OriginPlus 2021 software.
Dilution assay. An aliquot of PTP1B was incubated for 1 h at 37°C in the
presence of saturating concentration (50 µM) of avarone (2). A control test was prepared
diluting PTP1B solution with the same volume of DMSO, the solvent used to dissolve 2.
After 1 h, an aliquot of samples was withdrawn and diluted 400 fold in buffer assay to
evaluate the residual activity of the enzyme. All tes ts were carried out in triplicate. Data
obtained were normalized respect to control sample.
Dependence of K M and Vmax from avarone (2) concentration. The concentration
of avarone used were: 0, 4.0, 5.5, and 7.0 µM. To calculate both K M and Vmax valued, we
determined the initial hydrolysis rate at seven different substrate (pNPP) concentrations
(0.5, 1, 2 4, 8 16 , 25 mM). Experimental data were fitted with Michaelis -Menten equation
using OriginPro 2021 software

SMILES: CC1=CCC[C@H]2[C@](C)(CC3=CC(=O)C=CC3=O)[C@@H](C)CC[C@]12C [avarone (2), avarone]
- IC50 [1]: 62200 nM
- Akt phosphorylation levels, insulin-avarone combination ([2]; 25 µM avarone + 10 nM insulin): values higher than those observed after treatment with insulin alone
- Akt phosphorylation levels ([2]; 25 µM avarone alone): increase in Akt phosphorylation levels similar to that induced by insulin
- type of AKR1B1 inhibition [3]: “tight binding” inhibitor; also recorded: non-competitive mixed-type inhibitor
- Ki' (dissociation constant of the EIS complex) AKR1B1 ([3]; L-idose substrate, tight binding non-competitive model): 55 ± 8 nM
- Ki ([3]; L-idose substrate, tight binding non-competitive model, read-out: Ki (dissociation constant of the EI complex) AKR1B1): 410 ± 94 nM
- reversibility of PTP1B inhibition (dilution assay) ([4]; 50 µM avarone, 1 h at 37°C, diluted 400 fold): reversible inhibitor
- Ki ([4]; KiA PTP1B (first inhibitor molecule)): 15100 ± 1400 nM
- Ki ([4]; KiB PTP1B (second inhibitor molecule, binds EIA)): 1000 ± 100 nM
- type of PTP1B inhibition ([4]; pNPP, 0-7 µM avarone, double reciprocal plot): competitive inhibitor; also recorded: cooperative pure competitive inhibition by two non-exclusive inhibitor molecules
